Assay results from the NIST ThermoML archive (doi:10.1021/je034036t).

Settings: Liquid, Pulse-echo method

COCCOCCOCCOCCOC [2,5,8,11,14-pentaoxapentadecane]
speed of sound [m/s]
Settings	293.15 K	303.15 K	313.15 K	323.15 K	333.15 K	343.15 K	353.15 K
100 kPa	1400.2	1361.6	1324.5	1288	1252	1216.6	1181.6
10000 kPa	1439.3	1402.8	1367	1332.1	1297.9	1264.2	1231.2
20000 kPa	1477.3	1441.7	1407.3	1373.8	1340.7	1308.6	1276.9
30000 kPa	1512.3	1478.2	1444.9	1412.5	1380.8	1349.9	1319.8
40000 kPa	1546.2	1513	1480.9	1449.5	1418.3	1388.8	1359.8
50000 kPa	1578.2	1546.1	1514.8	1484.2	1454.2	1425.3	1397.1
60000 kPa	1609.1	1577.7	1547.2	1517.4	1488.4	1460.1	1432.8
70000 kPa	1638.4	1607.6	1578.1	1548.8	1520.7	1493.1	1466.5
80000 kPa	1666.8	1637	1607.8	1579.3	1551.9	1524.7	1498.9
90000 kPa	1694.2	1664.9	1636.4	1608.6	1581.5	1555.3	1529.8
100000 kPa	1720.6	1692	1663.9	1636.7	1610.2	1584.4	1559.5

COCCOCCOCCOC [2,5,8,11-tetraoxadodecane]
speed of sound [m/s]
Settings	293.15 K	303.15 K	313.15 K	323.15 K	333.15 K	343.15 K	353.15 K
100 kPa	1361.9	1323.2	1285.1	1247.7	1210.9	1174.6	1138.7
10000 kPa	1403.1	1366.5	1330	1294.6	1259.5	1225.1	1191.5
20000 kPa	1442.5	1407.2	1372.2	1338.5	1304.8	1272	1240
30000 kPa	1479.3	1445.2	1411.8	1379.1	1346.9	1315.6	1284.6
40000 kPa	1514.7	1481.6	1448.8	1417.3	1386.3	1356.2	1326.2
50000 kPa	1547.8	1515.7	1484.1	1453.6	1423.4	1394.1	1365.6
60000 kPa	1579.5	1548.2	1517.5	1487.9	1458.8	1430.3	1402.4
70000 kPa	1610	1579.4	1549.7	1520.7	1492.1	1464.6	1437.6
80000 kPa	1639.3	1609.3	1580.3	1552	1524.3	1497.2	1470.9
90000 kPa	1667.4	1638.2	1609.9	1581.9	1554.8	1528.4	1502.6
100000 kPa	1694.6	1665.9	1638.1	1610.8	1584.3	1558.5	1533.4
